Source: patent US4798844A, “Chemotherapeutant composition” (Shikoku Chemicals Corporation, priority 1987, dated 1989)
Structures can show the parent of a compound that is named as a salt.

What was measured:
[1] = system: Bacillus subtilis; experiment: Antimicrobial activity to pathogenic bacteria (MIC, agar plate dilution); assay type: cell-based; settings: Japanese Chemotherapeutic Association
Description: (§1) The minimum inhibitory concentrations to pathogenic bacteria shown in Table 2 were determined by the agar plate dilution process according to the standard method of the Japanese Chemotherapeutic Association.

[2] = system: Staphylococcus aureus; experiment: as above; assay type: cell-based; settings: Japanese Chemotherapeutic Association
Description: as §1

[3] = system: Streptococcus faecalis; experiment: as above; assay type: cell-based; settings: Enterococcus faecalis, Japanese Chemotherapeutic Association
Description: as §1

[4] = system: Streptococcus pyogenes; experiment: as above; assay type: cell-based; settings: Japanese Chemotherapeutic Association
Description: as §1

[5] = system: mouse; experiment: Acute toxicity (oral LD50); assay type: in vivo
Excerpt: (§2) It is seen that the actue toxicity of the compound is very low.

[6] = Acute toxicity (oral LD50); assay type: in vivo; settings: mouse, in vivo, po, LD50 Value
Excerpt: as §2

[7] = Migration in blood after oral administration; assay type: in vivo; settings: rat, oral 300 mg/kg; for Concentration in Blood: gum arabic suspension, compound bonded with small blood protein (fraction MW 10,000)
Description: The compound obtained in Example 1 was orally administered at a dose of 300 mg/kg in the form of a suspension in gum arabic to a rat, and the change of the concentration in blood was examined by the high-speed liquid chromatography.
Each value is the concentration of the compound bonded with a blood protein having a small molecular weight (fraction molecular weight=10,000).

[8] = system: Trichophyton rubrum; experiment: Antimicrobial activity to pathogenic true fungi (MIC); assay type: cell-based; settings: Sabourauds agar medium, 25° C., 7 to 14 days
Description: (§3) A true fungus shown in Table 1 was cultured in Sabourauds agar medium at 25° C. for 7 to 14 days, and the minimum inhibitory concentration (MIC value, μg/ml) was determined.

[9] = system: Trichophyton tonsurans; experiment: as above; assay type: cell-based; settings: Sabourauds agar medium, 25° C., 7 to 14 days
Description: as §3

[10] = system: Candida albicans; experiment: as above; assay type: cell-based; settings: Sabourauds agar medium, 25° C., 7 to 14 days
Description: as §3

[11] = system: Trichophyton mentagrophytes; experiment: as above; assay type: cell-based; settings: Sabourauds agar medium, 25° C., 7 to 14 days
Description: as §3

[12] = system: Microsporum gypseum; experiment: as above; assay type: cell-based; settings: Nannizzia gypsea; Sabourauds agar medium, 25° C., 7 to 14 days
Description: as §3

[13] = system: Aspergillus niger; experiment: as above; assay type: cell-based; settings: Sabourauds agar medium, 25° C., 7 to 14 days
Description: as §3

[14] = system: Aspergillus fumigatus; experiment: as above; assay type: cell-based; settings: Sabourauds agar medium, 25° C., 7 to 14 days
Description: as §3

[15] = system: Trichophyton mentagrophytes; experiment: Curative effect to trichophytosis; assay type: in vivo, guinea pig; settings: for Number of Colonies in Skin Pieces after 3 days' stoppage of administration: 10 days, then 3 days stopped, control 3.4 × 10^3; for Number of Colonies in Skin Pieces after 10 days' administration: control 4.1 × 10^3
Excerpt: A guinea pig was skin-infected with Trichophyton mentagrophytes, and after two days had passed from the infection, the compound obtained in Example 1 was orally administered in the form of a suspension in gum arabic once a day for 10 days and the pharmaceutical effect was examined. Then, the administraion of the compound was stopped for 3 days and the recovery state was examined.

[16] = system: Candida albicans; experiment: Curative effect to candidiasis; assay type: in vivo, mouse; settings: after two days; for Survival Ratio: 1.4 hours after infection, control 0/3
Description: A mouse was infected with Candida albicans, and when 1.4 hours had passed from the infection, the compound obtained in Example 1 was orally administered in the form of a suspension in gum arabic. After two days, the pharmaceutical effect was examined.

[17] = system: skin; experiment: Primary irritation to skin; assay type: in vivo, rabbit
Excerpt: It is seen that the compound is a non-irritating substance.

Structure (SMILES): O=C(C(=Cc1ccc(Cl)cc1Cl)n1ccnc1)c1ccc(Cl)cc1 [Example 1, 1-(4-chlorophenyl)-2-(1H-imidazolyl)-3-(2,4-dichlorophenyl)-2-propen-1-onehydrochloride]
- MIC [1]: 3.12 µg/mL
- MIC [2]: 1.56 µg/mL
- MIC [3]: 3.12 µg/mL
- MIC [4]: 3.12 µg/mL
- LD50 Value ([5]; in vivo, po): 3100 mg/kg
- acute toxicity ([5]; oral, in words): very low
- LD50 [6]: 2950 mg/kg
- Concentration in Blood ([7]; 0 hours): 0 ng/mL
- Concentration in Blood ([7]; 2 hours): 1200 ng/mL
- Concentration in Blood ([7]; 4 hours): 2970 ng/mL
- Concentration in Blood ([7]; 6 hours): 9070 ng/mL
- Concentration in Blood ([7]; 8 hours): 4260 ng/mL
- Concentration in Blood ([7]; 12 hours): 5620 ng/mL
- Concentration in Blood ([7]; 24 hours): 1500 ng/mL
- time to maximum concentration in blood ([7]; suspension in gum arabic): within several hours
- MIC [8]: < 1.25 µg/mL
- MIC [9]: < 1.25 µg/mL
- MIC [10]: < 6.25 µg/mL
- MIC [11]: < 1.25 µg/mL
- MIC [12]: < 1.25 µg/mL
- MIC [13]: 3.12 µg/mL
- MIC [14]: 3.12 µg/mL
- Number of Colonies in Skin Pieces after 3 days' stoppage of administration ([15]; 50 mg/kg oral once a day): annihilated
- Number of Colonies in Skin Pieces after 10 days' administration ([15]; 50 mg/kg oral once a day): annihilated
- Number of Colonies in Skin Pieces after 3 days' stoppage of administration ([15]; 100 mg/kg oral once a day): annihilated
- Number of Colonies in Skin Pieces after 10 days' administration ([15]; 100 mg/kg oral once a day): annihilated
- Survival Ratio ([16]; 50 mg/kg oral): 1/3
- Number of Living Cells in Kidney of Survivor Mouse ([16]; 50 mg/kg oral): substantially annihilated
- Survival Ratio ([16]; 100 mg/kg oral): 2/3
- primary irritation to skin ([17]; in words): non-irritating
- Primary Irritation Ratio ([17]; rabbit, coating concentration 100%): 0.72
